The record followed here is patent US6063783A, “Analgesic use of triazolo-pyridazine derivatives” (Merck Sharp & Dohme Ltd., priority 1997, dated 2000).

Series [1] concerns carrageenan-induced hyperalgesia. Nature of the series: rat carrageenan-induced hyperalgesia assay. In kind it is in vivo. The note with it: male Sprague Dawley rats, oral, given 2 h after carrageenan, mechanical thresholds at 3 h, read-out: ID50, inhibition of carrageenan-induced hyperalgesia. As for the experimental part:
Carrageenan-induced hyperalgesia
Male Sprague Dawley rats (100-120 g) received an intraplantar injection of carrageenan (4.5 mg) and mechanical thresholds were determined 3 h later using a modified Ugo Basile Algesiometer. Control rats received saline (0.15 ml i.pl.). Hyperalgesia was defined as the difference in vocalisation threshold for saline- and carrageenan-injected rats. Paw pressure scores for drug-treated rats were expressed as a percentage of this response. Compound A (1, 3 or 10 mg/kg) or vehicle were administered 2 h after carrageenan.
(§1) Compound A was suspended in 0.5% methocel and administered orally. Doses refer to the free base.

For the next series, the system named is chain pulling. Nature of the series: chain pulling (sedation) in rats. The class given is in vivo, rat. As to conditions: food-deprived P.V.G. rats; oral doses of up to 100 mg/kg; chain pulls recorded for up to 60 min. As for the experimental part: Response sensitivity training and testing was carried out in standard operant conditioning chambers. Each chamber was equipped with a chain suspended from the centre of the ceiling and connected to a micro switch. Food pellets were delivered into a food magazine positioned at floor level in the centre of the front wall. Food-deprived P.V.G. rats (280-380 g) were trained to pull a chain for access to food pellets according to a random interval (RI) 30 s schedule. Animals received Compound A at 1, 3, 10, 30 or 100 mg/kg or vehicle and the number of chain pulls recorded for up to 60 min. Response rates for drug-treated animals are then expressed as a percentage of response rates for vehicle-treated rats.
as §1

Regarding `Cn1ncnc1COc1nn2c(-c3ccccc3)nnc2cc1N1CCCC1` [Compound A, 6-(2-methyl-2H-1,2,4-triazol-3-ylmethoxy)-3-phenyl-7-(pyrrolidin-1-yl)-1,2,4-triazolo[4,3-b]pyridazine], the ED50 in series [1] was found to be 5.3 mg/kg. In addition, the “effects on chain pulling (sedation)” value in the series on chain pulling is “no effects”.
